Values of other authors as cited in patent US20090048237A1 (priority 2007, published 2009).
Read-outs that look alike come from different tables or passages of the source.

What was measured:
[1] = not given; remark: listed apart in the source
[2] = 0.2 mg/kg sublingual versus 0.2 mg/kg nasal, children
[3] = human, in vivo
[4] = in vivo
[5] = 200 mcg sublingual
[6] = children
[7] = sublingual Halcion tablets
[8] = 125 mcg and 250 mcg

SMILES | patients with complete drug dissolution within 10 min (7.5 mg sublingual tablet) [%] | sedation scores (7.5 mg sublingual versus oral, 30 and 60 min after administration) | children with satisfactory sedation at 15 min after administration ([1]; 0.25 mg/kg under the tongue) [%] | children with satisfactory sedation at 15 min after administration ([1]; 0.5 mg/kg under the tongue) [%] | children with satisfactory sedation at 15 min after administration ([1]; 0.75 mg/kg under the tongue) [%] | midazolam level 30 min after premedication [2] | children who had not previously cried that cried on administration [3] [%] | patients who experienced nasal irritation [3] | tablet dissolution time [4] [s] | depth of sedation versus 10 mg oral diazepam [5] | time after administration at which sedation developed ([5]; 61-70 year old patients) [min] | average sublingual tablet dissolution [6] [min] | tablet dissolution after dosing [7] [min] | sedation and psychomotor performance, elderly versus young persons at the same dose [8]
Cc1ncc2n1-c1ccc(Cl)cc1C(c1ccccc1F)=NC2 [Midazolam, 8-chloro-6-(2-fluorophenyl)-1-methyl-4H-imidazo[1,5-a][1,4]benzodiazepine] | 72 | higher than in the oral group | 28 | 52 | 64 | statistically significantly higher than in the nasal group | 71 | 20 | – | – | – | – | – | –
Cc1nnc2n1-c1ccc(Cl)cc1C(c1ccccc1Cl)=NC2 [Triazolam, 8-chloro-6-(o-chlorophenyl)-1-methyl-4H-s-triazolo-[4,3-alpha][1,4]benzodiazepine] | – | – | – | – | – | – | – | – | ≤ 90 | deeper sedation | 60 to 90 | 4 | 2 to 3 | greater degree of sedation and greater impairment of psychomotor performance
